# According to patent US11371020B2, “Uses of epithelial-to-mesenchymal inhibitors in generating pacemaker cells” (Emory University, priority 2016, dated 2022):
# Entries after “also recorded” stand apart in the source; their conditions may differ.
# Assays:
# [1] = system: TBX18-induced pacemaker cells (TBX18-iPCs); assay: Electrode-to-electrode impedance measurement of migration of TBX18-iPCs; assay type: cell-based, rat; settings: A83-01 0.5 microM; NRVM transduced with adenoviral human TBX18
# Protocol: TBX18-iPCs were created by transducing freshly isolated neonatal rat ventricular myocytes (NRVM) with an adenoviral vector expressing human TBX18. TBX18-iPC were cultured with an inhibitor of EMT, A83-01 (0.5 microM).
# (§1) Experiments were performed to test whether i) TBX18-induced pacemaker cells (TBX18-iPCs) migrate, and ii) inhibition of EMT in TBX18-iPCs may stop the migration, thereby enhancing its pacing function. (See FIGS. 1-8). TBX18-iPCs were created by transducing freshly-isolated neonatal rat ventricular myocytes (NRVM) with an adenoviral vector expressing human TBX18. TBX18-iPC were cultured with an inhibitor of EMT, A83-01. […] TBX18-iPCs beat in synchrony upon EMT inhibition, and their automaticity persists over long-term.
# EMT genes = assay: EMT-related gene expression in TBX18-induced pacemaker cells; assay type: cell-based, rat; settings: TBX18-iPCs cultured with A83-01
# Protocol: as §1
# [2] = system: TBX18-induced pacemaker cells (TBX18-iPCs); assay: Beating, field potential and Ca2+ transient recording of TBX18-iPCs; assay type: cell-based, rat
# Protocol: as §1
# TBX18-iPCs = assay: Cx43 localisation, gap junctional coupling and Hcn4 expression in TBX18-iPCs; assay type: cell-based, rat
# Protocol: as §1
# TBX18 mediates both automaticity and EMT in iPCs.
# ALK-5 = target: T1, ALK-5 (Homo sapiens, UniProt P36897); settings: cited from earlier work
# T1 sequence (P36897 34-503): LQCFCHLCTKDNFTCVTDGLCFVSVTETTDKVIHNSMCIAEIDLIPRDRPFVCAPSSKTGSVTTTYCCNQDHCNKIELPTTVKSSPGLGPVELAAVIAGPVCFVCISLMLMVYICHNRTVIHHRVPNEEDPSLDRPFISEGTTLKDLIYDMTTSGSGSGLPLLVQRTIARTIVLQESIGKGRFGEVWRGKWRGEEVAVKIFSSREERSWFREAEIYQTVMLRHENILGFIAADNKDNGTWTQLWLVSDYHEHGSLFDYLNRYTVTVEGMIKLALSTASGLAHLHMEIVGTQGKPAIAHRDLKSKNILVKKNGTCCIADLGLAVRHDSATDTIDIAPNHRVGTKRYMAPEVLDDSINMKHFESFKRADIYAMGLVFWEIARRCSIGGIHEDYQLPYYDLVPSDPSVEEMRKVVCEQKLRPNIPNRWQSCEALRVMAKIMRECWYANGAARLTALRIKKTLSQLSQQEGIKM
smiles,measurement,setting,value
"Cc1cccc(-c2nn(C(=S)Nc3ccccc3)cc2-c2ccnc3ccccc23)n1 [A83-01, 3-(6-methyl-2-pyridinyl)-N-phenyl-4-(4-quinolinyl)-1H-pyrazole-1-carbothioamide]",migration of TBX18-iPCs,[1],remain stationary; also recorded: migratory behavior is deleted
same,EMT gene expression in the iPCs,EMT genes,down-regulates EMT genes
same,persistence of automaticity of iPMs,[2]; in A83-01 versus without it,persists much longer
same,synchrony of pacing,[2]; in the presence of A83-01,synchronous and rhythmic pacing; also recorded: pace in unity
same,beating rate of TBX18-iPCs,[2]; upon EMT inhibition,beating rate increases
same,contraction and relaxation speed of TBX18-iPCs,[2]; upon EMT inhibition,contract and relax faster
same,gap junctional coupling of EMT-inhibited TBX18-iPCs,TBX18-iPCs,long-term gap junctional coupling
same,Hcn4 expression in TBX18-iPCs,TBX18-iPCs; upon EMT inhibition,enhances Hcn4 expression
same,localisation of nuclear-bound Cx43 proteins in TBX18-iPCs,TBX18-iPCs; upon EMT inhibition,translocated to the sarcolemma
same,Smad signaling and epithelial-to-mesenchymal transition by transforming growth factor-beta,ALK-5,inhibits
